Results taken from paper PMC6587507, “Comparison of the metabolism of 10 chemicals in human and pig skin explants” (Journal of Applied Toxicology, 2018).
Where two headings read alike, the source gives them in different places.

Legend:
[1] = system: human abdominal skin explants; experiment: Cutaneous distribution and mass balance of radioactivity in human skin explants; conditions: human skin; for % Radioactivity in culture media after 24 h / Mass balance (% of applied dose at end of incubation): 24 h; for Medium radioactivity / Skin radioactivity / Skin surface radioactivity: end of incubation (24 h), mean ± SD
Procedure: (§1) Human abdominal skin was obtained (with consent for research from a commercial supplier [L’Union Clinic, Rangueil hospital and Icelltis, Toulouse, France] with certified ethical procedures) from six male and 34 female healthy donors, 41 ± 11 years of age, undergoing cosmetic surgery. Abdominal skin was kept at 4°C during transports and placed in culture within 3 hours of surgery. Pig ear skin was a waste product of the meat industry (without hot steam treatment) from domestic pigs (female Pietrain breed, 6 months old, 80‐100 kg) obtained from a local slaughterhouse (Montauban, France). Ears were taken from the animals within 5 minutes of slaughter and were kept at 4°C during transport to the laboratory, which lasted a maximum of 2 hours. Pig skin samples were dried and then gently shaved.
(§2) The experiment and the preparation of the culture medium were performed under sterile conditions. Human and pig skin was cut with a dermatome to a thickness of 450 ± 50 μm. Skin punches were seeded dermal side down in polycarbonate Transwell® inserts from Corning Life Sciences (Avon, France; 4.16 cm^2 application area with an 8 μm pore size filter). […] The inserts were placed in a six‐well plate containing 1.5 mL culture medium and the skin explants incubated in a standard incubator at 37°C, under an atmosphere of 5% CO2 and 50 ± 10% relative humidity. The culture medium was Dulbecco's modified Eagle medium without phenol red supplemented with 8 mM L‐glutamine, 2 μg/mL streptomycin/penicillin, 25 ng/mL fungizone and 50 ng/mL gentamycin. Skin explants were incubated for 1 hour before application of the formulation.
(§3) The dosing volume was 10 μL/cm^2. For pig skin metabolism studies, which were carried out before the human skin experiments to ensure the analytics were optimal, 2.4 nmol/cm^2 of each chemical (only the ^14C‐labeled form) was applied on the skin and incubated for 24 hours for the measurement of metabolites in the medium. These tissues were further incubated for a total of 48 hours, with a replacement of the culture medium after 24 hours. This longer incubation time and the standard doses of 2.4 nmol/cm^2 were used to maximize the likelihood of the skin forming metabolites to develop analytical methods. The metabolites profiles in pig and human skin were compared in the medium sample at 24 hours of incubation. The metabolite profiles for the 48‐hour timepoint are not reported here since humans skin metabolism was measured at 24 hours only; however, for completeness, the distribution of radioactivity at the end of both pig (48 hours) and human (24 hours) skin incubations is reported. […] The doses were obtained by mixing radiolabeled and cold chemical. One replicate disc per donor and per dose was used. All chemicals were tested on four donors of pig and human skin, except for 2‐AAF and 4‐amino‐3‐nitrophenol (4‐A‐3‐NP), for which three donors were used. The medium was removed after 24 hours of incubation and stored at −20°C for analysis.
(§4) At the end of the experiment, the trans‐wells were dismantled and washed with appropriate solvent for each chemical. […] The cotton swabs were placed in 5 mL of appropriate solvent in a scintillation counting flask and placed in a sonicator bath for 20 minutes. Aliquots of 1 mL were counted by liquid scintillation, after addition of 15 mL of scintillation liquid. Tissue culture inserts were washed with 10 mL of appropriate solvent. One aliquot of 1 mL was counted by liquid scintillation, after addition of 15 mL of scintillation liquid. After media removal, wells were washed twice with 1 mL of the appropriate solvent. Washing solutions were counted by liquid scintillation, after addition of 15 mL of scintillation liquid.
(§5) Pig skin explants were digested using 3 mL Soluable (60°C for 24 hours) and counted by liquid scintillation. Skin extraction process was adapted according to the physicochemical properties of each chemical and its potential metabolites.

[2] = ref Chemspider (www.chemspider.com), cited from earlier work
pig ear skin explants [3] = conditions: for Parent compound in the medium after 24 h / Metabolites detected in the skin or culture media / Number of metabolites detected in the culture medium: pig skin; for Parent compound in the medium after 24 h: mean ± SEM; for Parent compound in the medium after 24 h / Number of metabolites detected in the culture medium: 24 h
Procedure: as §1, §2, §3
(§6) After centrifugation, a 100 μL aliquot of the extract was counted by liquid scintillation. The pellet was dissolved in 3 mL Soluable (60°C, 24 hours) and then counted by liquid scintillation.
(§7) Analysis of the chemicals and their metabolites in medium after 24 hours of incubation with pig and human skin was measured by radio‐high‐performance liquid chromatography (HPLC) using an HPLC 1100 Series, Agilent and a Flow Scintillation Analyzer, Radiomatic 610 TR, Perkin Elmer (Villebon‐sur‐Yvette, France). […] To confirm that metabolites were the same in pig and human skin, medium samples were co‐injected on the new column. The metabolites were identified by LC‐electrospray ionization‐HRMS (HPLC‐ESI‐HRMS) with a RSLC3000 HPLC system coupled to a LTQ‐Orbitrap XL mass spectrometer (Thermo Scientific). The HPLC analytical conditions for identification and quantification of the metabolites for each chemical are summarized in Supporting information Table S1.

[4] = system: human abdominal skin explants
Procedure: as §1, §2, §3, §6, §7

pig ear skin explants [5] = experiment: Cutaneous distribution and mass balance of radioactivity in pig skin explants; conditions: pig skin; for % Radioactivity in culture media after 24 h / Mass balance (% of applied dose at end of incubation): 2.4 nmol/cm^2; for Mass balance (% of applied dose at end of incubation): 48 h; for Medium radioactivity / Skin radioactivity / Skin surface radioactivity: end of incubation (48 h), mean ± SD
Procedure: as §1, §2, §3, §4, §5

[6] = system: N‐acetyltransferase (NAT)1 enzyme; parameters: method as in unpublished data; conditions: ref unpublished data; cited from earlier work
skin explants = experiment: Skin explant assay, radioactivity in culture medium bound to proteins; assay type: in vitro ADME; conditions: medium with 4% BSA; species not stated

SMILES	% Radioactivity in culture media after 24 h [1] [%]	Mass balance (% of applied dose at end of incubation) [1]	Medium radioactivity [1]	Skin radioactivity [1]	Skin surface radioactivity [1]	LogP [2]	Maximum water solubility [2] [µg/mL]	Parent compound in the medium after 24 h (pig ear skin explants [3]) [% Applied dose]	Parent compound in the medium after 24 h ([4]; human skin, 24 h, mean ± SEM) [% Applied dose]	% Radioactivity in culture media after 24 h (pig ear skin explants [5]) [%]	Mass balance (% of applied dose at end of incubation) (pig ear skin explants [5])	Medium radioactivity (pig ear skin explants [5])	Skin radioactivity (pig ear skin explants [5])	Skin surface radioactivity (pig ear skin explants [5])	also measured
Nc1ccc(O)cc1[N+](=O)[O-] [4‐A‐3‐NP, 4‐amino‐3‐nitrophenol]	62.3 ± 3.4	94.4 ± 3.0 % of applied dose	62.3 ± 3.4 % of the applied dose	28.6 ± 4.5 % of the applied dose	3.6 ± 2.1 % of the applied dose	0.41	2000	0.6 ± 0.2	0.1 ± 0.06	51.9 ± 6.7	96.0 ± 2.6 % of applied dose	69.9 ± 5.8 % of the applied dose	15.6 ± 5.3 % of the applied dose	10.5 ± 5.1 % of the applied dose	N‐acetylated metabolite (pig ear skin explants [3]; pig skin incubations): not detected; N‐acetylated metabolite ([4]; human skin incubations): not detected; Substrate for NAT1 [6]: not a substrate
Nc1ccc(Cl)cc1 [4‐Chloroaniline]	49.7 ± 4.4	86.2 ± 0.7 % of applied dose			2.2 ± 0.5 % of the applied dose		3200			54.3 ± 0.6	99.2 ± 10.8 % of applied dose			0.7 ± 0.2 % of the applied dose	Radioactivity detected in the culture medium bound to proteins (skin explants): ~ 20%; Medium radioactivity ([1]; listed as 4-Chloroaniline): 49.7 ± 4.4 % of the applied dose; Skin radioactivity ([1]; listed as 4-Chloroaniline): 34.4 ± 3.8 % of the applied dose; Medium radioactivity ([1]; listed as 4‐chloroaniline): 50 % of the applied dose; Skin radioactivity ([1]; listed as 4‐chloroaniline): 35 % of the applied dose; Metabolites detected in the skin or culture media (pig ear skin explants [3]): no metabolites were detected; Metabolites detected in the skin or culture media ([4]; human skin): no metabolites were detected; Medium radioactivity (pig ear skin explants [5]; listed as 4-Chloroaniline): 82.1 ± 8.8 % of the applied dose; Skin radioactivity (pig ear skin explants [5]; listed as 4-Chloroaniline): 16.3 ± 2.3 % of the applied dose; Medium radioactivity (pig ear skin explants [5]; listed as 4‐chloroaniline): 82 % of the applied dose; Skin radioactivity (pig ear skin explants [5]; listed as 4‐chloroaniline): 16 % of the applied dose
CCOc1ccc2ccc(=O)oc2c1 [7‐EC, 7‐ethoxycoumarin]		91.9 ± 3.8 % of applied dose	66.7 ± 3.5 % of the applied dose	24.1 ± 6.2 % of the applied dose	1.4 ± 0.2 % of the applied dose	2.30	780	60.8 ± 0.6	57.7 ± 3.1	62.5 ± 2.7	100.0 ± 3.8 % of applied dose	89.7 ± 3.4 % of the applied dose	9.3 ± 0.4 % of the applied dose	1.0 ± 0.1 % of the applied dose	Number of metabolites detected in the culture medium (pig ear skin explants [3]): three; Number of metabolites detected in the culture medium ([4]; human skin, 24 h): three
OCC=Cc1ccccc1 [Cinnamyl alcohol]	83.5 ± 4.8	99.9 ± 5.8 % of applied dose	83.5 ± 4.8 % of the applied dose	16.2 ± 3.2 % of the applied dose	0.2 ± 0.1 % of the applied dose	1.95	4000	0.0	0.2 ± 0.03	63.2 ± 1.9	96.8 ± 1.9 % of applied dose	87.1 ± 2.7 % of the applied dose	8.5 ± 0.8 % of the applied dose	1.2 ± 1.1 % of the applied dose	Number of metabolites detected in the culture medium ([4]; human skin, 24 h): eight
Cn1c(N)nc2c3cccnc3ccc21 [IQ, 2‐amino‐3‐methylimidazo[4,5‐f]quinoline]	10.5 ± 13.4	94.5 ± 10.6 % of applied dose	10.5 ± 13.4 % of the applied dose	66.0 ± 12.3 % of the applied dose	17.9 ± 3.7 % of the applied dose	1.47	530			30.1 ± 2.3	96.3 ± 6.6 % of applied dose	54.8 ± 8.3 % of the applied dose	33.6 ± 5.1 % of the applied dose	7.8 ± 3.9 % of the applied dose	Metabolites detected in the skin or culture media (pig ear skin explants [3]): no metabolites were detected; Metabolites detected in the skin or culture media ([4]; human skin): no metabolites were detected
Oc1cccc(O)c1 [Resorcinol]		94.2 ± 3.5 % of applied dose	54.4 ± 1.5 % of the applied dose			0.80		1.8 ± 0.8		58.6 ± 7.6	92.7 ± 5.92 % of applied dose	71.0 ± 7.1 % of the applied dose			Glucuronide conjugate as share of the total metabolites observed ([4]; both, human, 24 h): > 78 % of the total metabolites; Parent compound in the medium after 24 h ([4]; both, human, 24 h): 4.8 ± 0.7 % Applied dose; Sulfate conjugate as share of the total metabolites ([4]; both, human, 24 h): 19 % of the total metabolites; Total metabolites in the medium after 24 h ([4]; both, human, 24 h): 41.9 ± 0.6 % Applied dose
COc1cc(C=O)ccc1O [Vanillin]	60.0 ± 7.8	104.4 ± 6.0 % of applied dose	60.0 ± 7.8 % of the applied dose				8500	0.1 ± 0.04		58.6 ± 5.2	90.7 ± 1.7 % of applied dose	77.4 ± 5.1 % of the applied dose			Number of metabolites detected in the culture medium (pig ear skin explants [3]): Six; Parent compound in the medium after 24 h ([4]; both, human, 24 h): 0.3 ± 0.09 % Applied dose; Total metabolites in the medium after 24 h ([4]; both, human, 24 h): 51.1 ± 2.3 % Applied dose
